# Patent US20040038910A1, “Remedy for diabetes mellitus” (priority 2000, published 2004)
# Experiments:
# [1] = test system: model mice for non-insulin-depending diabetes mellitus (KK-A^y); assay: Blood-sugar level of KK-A^y diabetic model mice fed test feed for 30 days; type: in vivo; details: group D, feed D (2.5% L-arabinose, no sucrose) ad libitum, FIG. 2
# Method: Twenty model mice for non-insulin-depending diabetes mellitus showing hyperglycemia (260˜270 mg/liter) (KK-A^y, male, 8 weeks age, Nippon Clair) were preliminarily raised for one week, divided into two groups (group A and group B) and used for the test. Each of the mice was placed in a plastic cage separately and raised by keeping at 23±1° C. under a 12-hour bright-and-dark cycle (bright environment from 7 a.m. to 7 p.m. and dark environment from 7 p.m. to 7 a.m. of the next day) where feed and water were freely taken by the mice. Blood-sugar level (concentration of glucose in blood) was measured by a glucose oxidase method after collecting the blood from the venous plexus of the eyeground at 9 a.m.
# The feed A mentioned in Table 1 (a feed containing α-corn starch, sucrose, and cellulose as carbohydrate sources but containing no L-arabinose) was given to the mice of group A while the feed B mentioned in Table 1 (a feed containing α-com starch, sucrose, and cellulose as carbohydrate sources and also containing L-arabinose) was given to the mice of group B and the study was carried out for 30 days. […]
# [2] = target: sucrase (Homo sapiens, UniProt P14410); details: sucrose-decomposing enzyme in the small intestine; cited from earlier work
# [3] = test system: mice; details: 30 to 120 minutes after loading with sucrose; cited from earlier work
# sucrase, sequence (P14410 whole entry, species assumed): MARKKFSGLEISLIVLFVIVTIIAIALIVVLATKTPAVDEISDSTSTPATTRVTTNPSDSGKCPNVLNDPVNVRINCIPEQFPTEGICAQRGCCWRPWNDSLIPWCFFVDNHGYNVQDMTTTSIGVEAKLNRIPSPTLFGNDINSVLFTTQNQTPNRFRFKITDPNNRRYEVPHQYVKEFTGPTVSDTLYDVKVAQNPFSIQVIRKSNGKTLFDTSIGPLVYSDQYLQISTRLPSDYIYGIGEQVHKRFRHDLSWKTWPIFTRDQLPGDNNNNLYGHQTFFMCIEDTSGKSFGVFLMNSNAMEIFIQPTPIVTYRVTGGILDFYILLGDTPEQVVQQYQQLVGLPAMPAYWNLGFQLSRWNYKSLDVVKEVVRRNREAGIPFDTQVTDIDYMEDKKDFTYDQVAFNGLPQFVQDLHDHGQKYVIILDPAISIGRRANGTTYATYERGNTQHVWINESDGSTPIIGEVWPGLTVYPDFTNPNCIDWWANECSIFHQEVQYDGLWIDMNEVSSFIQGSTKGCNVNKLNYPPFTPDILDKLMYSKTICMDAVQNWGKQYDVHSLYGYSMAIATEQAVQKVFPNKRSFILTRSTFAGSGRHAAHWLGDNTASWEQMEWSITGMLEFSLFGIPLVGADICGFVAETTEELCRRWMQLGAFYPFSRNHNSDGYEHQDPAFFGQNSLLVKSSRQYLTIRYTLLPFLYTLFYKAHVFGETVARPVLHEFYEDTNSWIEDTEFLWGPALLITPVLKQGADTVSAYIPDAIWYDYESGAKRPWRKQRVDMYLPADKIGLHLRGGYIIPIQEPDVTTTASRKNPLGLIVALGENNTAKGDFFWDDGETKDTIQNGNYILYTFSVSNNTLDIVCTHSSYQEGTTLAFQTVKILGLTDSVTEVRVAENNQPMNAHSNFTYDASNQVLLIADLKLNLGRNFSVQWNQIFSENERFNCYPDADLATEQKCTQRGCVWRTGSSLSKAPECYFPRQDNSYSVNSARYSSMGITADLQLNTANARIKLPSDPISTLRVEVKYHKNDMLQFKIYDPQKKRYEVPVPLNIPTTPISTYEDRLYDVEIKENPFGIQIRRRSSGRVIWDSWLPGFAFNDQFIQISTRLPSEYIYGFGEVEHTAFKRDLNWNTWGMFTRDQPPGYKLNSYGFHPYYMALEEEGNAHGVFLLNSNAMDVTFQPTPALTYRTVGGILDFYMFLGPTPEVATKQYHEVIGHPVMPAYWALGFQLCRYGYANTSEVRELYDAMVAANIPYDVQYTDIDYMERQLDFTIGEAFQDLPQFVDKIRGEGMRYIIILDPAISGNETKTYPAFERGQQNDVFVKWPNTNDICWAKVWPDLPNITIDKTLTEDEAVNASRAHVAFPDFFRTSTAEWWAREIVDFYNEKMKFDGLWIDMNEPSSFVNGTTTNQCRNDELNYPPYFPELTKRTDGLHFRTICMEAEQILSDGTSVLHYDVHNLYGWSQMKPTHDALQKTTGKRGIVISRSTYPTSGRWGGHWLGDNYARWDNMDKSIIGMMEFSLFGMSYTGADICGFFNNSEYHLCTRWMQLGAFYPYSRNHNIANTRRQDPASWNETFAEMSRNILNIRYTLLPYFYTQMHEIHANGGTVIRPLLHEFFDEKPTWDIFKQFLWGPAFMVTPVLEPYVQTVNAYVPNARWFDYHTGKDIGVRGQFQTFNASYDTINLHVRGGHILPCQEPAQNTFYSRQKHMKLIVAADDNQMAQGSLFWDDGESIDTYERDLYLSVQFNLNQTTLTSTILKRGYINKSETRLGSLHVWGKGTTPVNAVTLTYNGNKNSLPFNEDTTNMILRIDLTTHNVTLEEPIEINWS
compound,measurement,setting,value
O=C[C@H](O)[C@@H](O)[C@@H](O)CO [L-arabinose],"change in blood-sugar level, L-arabinose without sucrose",[1],no decrease in blood-sugar level takes place
same,action on sucrase,[2],inhibition of sucrase
same,rise of blood-sugar level after loading with sucrose,[3],suppressing the rise of blood-sugar level
